biological target: T1, Human Recombinant Matriptase 2 (Homo sapiens, UniProt Q8IU80); test: Matriptase 2 fluorescence based inhibition assay, Method B (50 mM TRIS pH 7.5, 150 mM NaCl, 0.01% gelatin); format: biochemical; settings: 1 uM compound; Assay Used = B (Method B); read-out: Mar-2 % inhibition at 1 uM
T1 construct: purchased Enzo Life Sciences (an in-house preparation was also used) ALX-201-752-1
T1 sequence (Q8IU80 1-811): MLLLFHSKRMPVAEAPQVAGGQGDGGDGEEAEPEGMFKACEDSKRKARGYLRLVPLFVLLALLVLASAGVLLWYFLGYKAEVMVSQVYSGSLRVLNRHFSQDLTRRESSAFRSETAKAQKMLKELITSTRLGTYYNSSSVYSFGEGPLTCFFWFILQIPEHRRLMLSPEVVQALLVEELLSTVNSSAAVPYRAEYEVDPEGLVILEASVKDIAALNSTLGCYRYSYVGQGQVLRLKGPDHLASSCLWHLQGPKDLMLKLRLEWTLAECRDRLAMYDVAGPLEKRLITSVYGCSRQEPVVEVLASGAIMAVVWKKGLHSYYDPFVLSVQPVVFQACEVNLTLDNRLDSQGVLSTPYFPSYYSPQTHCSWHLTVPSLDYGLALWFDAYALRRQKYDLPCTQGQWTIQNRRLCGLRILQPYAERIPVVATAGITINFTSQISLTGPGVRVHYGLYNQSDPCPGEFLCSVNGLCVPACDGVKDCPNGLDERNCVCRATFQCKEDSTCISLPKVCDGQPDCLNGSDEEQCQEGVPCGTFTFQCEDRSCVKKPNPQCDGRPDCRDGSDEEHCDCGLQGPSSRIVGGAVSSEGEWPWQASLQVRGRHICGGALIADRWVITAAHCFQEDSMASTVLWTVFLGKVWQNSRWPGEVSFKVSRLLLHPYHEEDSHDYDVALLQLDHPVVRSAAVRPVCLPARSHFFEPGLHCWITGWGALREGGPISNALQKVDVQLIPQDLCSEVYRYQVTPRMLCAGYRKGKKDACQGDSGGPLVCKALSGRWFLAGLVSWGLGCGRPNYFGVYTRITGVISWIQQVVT
In short: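 Commercial (7 nM) or in-house (15 nM) enzyme preincubated 30 min with compound at 25° C, then 100 μM Boc-Gln-Ala-Arg-AMC added; fluorescence (Ex 360/Em 480 nm) read at 60 min. 1% DMSO final. IC50 from variable-slope sigmoidal fit of % inhibition.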

Row | SMILES | inhibition at 1 µM [%]
1 | N=C(N)c1ccc2cc(C(=O)O)n(Cc3csc4ccccc34)c2n1 [Compound I-724] | 50 to 75
2 | N=C(N)c1ccc2cc(C(=O)N[C@H]3CC[C@H](N)CC3)n(Cc3ccc(COCc4ccccc4)c4ccccc34)c2c1 [Compound I-781] | 75 to 100
3 | N=C(N)c1ccc2cc(C(=O)N[C@H]3CC[C@H](N)CC3)n(Cc3cc(Oc4ccccc4F)cc4ccccc34)c2c1 [Compound I-615] | 75 to 100
4 | N=C(N)c1ccc2cc(C(=O)NC3CCC(N)CC3)n(Cc3ccc(C(=N)N)c4ccccc34)c2c1 (stereo not drawn) [Compound I-645] | 25 to 50
5 | NC(=NO)c1ccc2cc(C(=O)O)n(Cc3cc(S(=O)(=O)c4ccccc4)cc4ccccc34)c2c1 [Compound I-659] | 0 to 25
6 | CS(=O)(=O)N[C@H]1CC[C@H](NC(=O)c2cc3ccc(C(=N)N)cc3n2Cc2cccc3ccccc23)CC1 [Compound I-753] | 50 to 75
7 | Cc1nnc(-c2cc3ccc(C(=N)N)cc3n2Cc2cccc3ccccc23)o1 [Compound I-751, 2-(5-methyl-1,3,4-oxadiazol-2-yl)-1-(naphthalen-1-ylmethyl)-1H-indole-6-carboximidamide] | 50 to 75
8 | N=C(N)c1ccc2cc(C(=O)N[C@H]3CC[C@H](N)CC3)n(Cc3cc(-c4ccc(Cl)s4)on3)c2c1 [Compound I-773] | 50 to 75
9 | N=C(N)c1ccc2cc(C(=O)N[C@H]3CC[C@H](N)CC3)n(Cc3cccc4c(Oc5ccccc5)cccc34)c2c1 [Compound I-731] | 75 to 100
10 | Cc1c(C(=O)N[C@H]2CC[C@H](N)CC2)n(Cc2cccc3ccccc23)c2cc(C(=N)N)ccc12 [Compound I-633] | 75 to 100
11 | N=C(N)c1ccc2cc(C(=O)N[C@H]3CC[C@H](N)CC3)n(Cc3cc(S(=O)(=O)c4ccccc4)cc4ccccc34)c2c1 [Compound I-727] | 75 to 100
12 | CC(=O)NC(=N)c1ccc2cc(C(=O)NC3CCN(C)CC3)n(Cc3cccc4ccccc34)c2c1 [Compound I-762, 6-(N-acetylcarbamimidoyl)-N-(1-methylpiperidin-4-yl)-1-(naphthalen-1-ylmethyl)-1H-indole-2-carboxamide] | 0 to 25
13 | CO/N=C(\N)c1ccc2c(c1)c(Cc1cccc3ccccc13)c(C(=O)O)n2C [Compound I-684] | 0 to 25
14 | N=C(N)c1ccc2cc(C(=O)N[C@H]3CC[C@H](N)CC3)n(Cc3cc(OCc4ccccc4)cc4ccccc34)c2c1 [Compound I-733] | 75 to 100
15 | COc1cccc(Oc2cc(Cn3c(C(=O)O)cc4ccc(C(=N)N)cc43)c3ccccc3c2)c1 [Compound I-686] | 50 to 75
16 | COc1ccc(Oc2cc(Cn3c(C(=O)O)cc4ccc(C(=N)N)cc43)c3ccccc3c2)cc1 [Compound I-688] | 50 to 75
17 | N=C(N)c1ccc2cc(C(=O)N[C@H]3CC[C@@H](N)CC3)n(Cc3csc4ccccc34)c2n1 [Compound I-722] | 75 to 100

same assay, conditions: 1 uM compound; Assay Used = B; read-out: Mar-2 % inhibition at 1 uM

Row | SMILES | inhibition at 1 µM [%]
18 | N=C(N)c1ccc2cc(C(=O)O)n(Cc3cc(Oc4nccs4)cc4ccccc34)c2c1 [Compound I-589] | 75 to 100
19 | CC(C)(C)OC(=O)NC(=N)c1ccc2cc(C(=O)N3CCCN(C(=O)OC(C)(C)C)CC3)n(Cc3cccc4ccccc34)c2c1 [Compound I-423] | 0 to 25
20 | N=C(N)c1ccc2cc(C(=O)NC3CCCCC3)n(Cc3cccc4ccccc34)c2c1 [Compound I-438] | 25 to 50
21 | NC(=O)c1ccc2cc(C(=O)NC3CCNCC3)n(Cc3cccc4ccccc34)c2c1 [Compound I-455, 1-(naphthalen-1-ylmethyl)-N2-(piperidin-4-yl)-1H-indole-2,6-dicarboxamide] | 0 to 25
22 | N=C(N)c1ccc2cc(C(=O)NC3CCCC(N)C3)n(Cc3cccc4ccccc34)c2c1 (stereo not drawn) [Compound I-467] | 75 to 100

same assay, conditions: compound at 1 uM; Assay Used: B; read-out: Mar-2 % inhibition at 1 uM

Row | SMILES | inhibition at 1 µM [%]
23 | COc1cccc2c(Cn3c(C(=O)N[C@H]4CC[C@H](N)CC4)cc4ccc(C(=N)N)cc43)cccc12 [Compound I-797] | 75 to 100
24 | N=C(N)c1ccc2cc(C(=O)N[C@H]3CC[C@H](N)CC3)n(Cc3cccc4sccc34)c2c1 [Compound I-823] | 50 to 75

— patent US12428415B2, “Matriptase 2 inhibitors and uses thereof” (Disc Medicine, Inc., priority 2018, dated 2025)
